Among the data in ChEMBL document CHEMBL1157511, “Dictazolines A and B, bisspiroimidazolidinones from the marine sponge Smenospongia cerebriformis” (J Nat Prod, 2008) are Activity values, retold here.

Activity calls are given as the source filed them. The calls are words filed in the database; no cut-off is given here.

The experiment is described as follows: Inhibition of beta-secretase assessed as proteolytic cleavage of amyloid precursor protein.

With `CN1C(=N)N(C)[C@@]2(Cc3c([nH]c4ccccc34)[C@]3(C(=O)N(C)C(=N)N3C)[C@@H]2c2c[nH]c3cc(Br)ccc23)C1=O`, the result was inactive. Take `CN1C(=N)N(C)[C@@]2(Cc3c([nH]c4ccccc34)[C@]3(C(=O)N(C)C(=N)N3C)[C@@H]2c2c[nH]c3ccccc23)C1=O`: the outcome was inactive.
